Test results as given in patent publication US12415785B2, “Compound modulators of sting” (CTXT PTY LTD, priority 2019, dated 2025).

System: human STING (HAQ)
Assay: Differential scanning fluorimetry (DSF), huSTING (HAQ)
Format: binding
Details: 2 μM protein, compound 100 μM; Tm with ligand minus Tm of protein alone (1% DMSO)
Outline: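 Recombinant His-TEV-tagged human STING allelic variants expressed in E. coli and purified by IMAC. Thermal unfolding followed by dye fluorescence (excitation 490 nm, emission 570 nm) from 20° C. to 100° C. in 0.5° C. steps, in triplicate, with and without ligand; Tm taken from the transition inflection point.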

- DSF huSTING (HAQ) ΔTm (° C.): 7.46 °C
Compound: NC(=O)c1ccc2c(c1)nc(-c1c(Br)cccc1C(=O)O)n2CCn1c(-c2c(Br)cccc2C(=O)O)nc2cc(C(N)=O)ccc21 (single isomer, unassigned) [Example 29.1, 2,2′-(Ethane-1,2-diylbis(5-carbamoyl-1H-benzo[d]imidazole-1,2-diyl))bis(3-bromobenzoic acid)]
